The values below come from patent publication US9700543B2, “GLP-1 receptor stabilizers and modulators” (Celgene International II SÀRL, priority 2011, dated 2017).

The target in data set [1] is T1, GLP-1R (Homo sapiens, UniProt P43220).
T1 construct: host or cells: CRE-bla CHO-K1
As to the kind of experiment: EC20 GLP-1(9-36) PAM cAMP assay: dose response of compound in the presence of fixed concentration of GLP-1(9-36). In kind it is cell-based. To be noted: compound dose response with fixed GLP-1(9-36), GLP-1R CRE-bla CHO-K1 cells; for EC20 GLP-1 (9-36) PAM Activity max cAMP: Emax as total cAMP; for EC50: cAMP. How it is done: EC20GLP-1(9-36) PAM cAMP Assay: Dose Response of Compound in the Presence of Fixed Concentration of GLP-1 (9-36)
GLP-1R CRE-bla CHO-K1 cells were seeded into 384-well white flat bottom plates at 10,000 cells/well/20 μL growth medium (DMEM-High glucose, 10% dialyzed FBS, 0.1 mM NEAA, 25 mM Hepes, 100 U/mL penicillin/100 μg/mL streptomycin, 5 μg/mL Blasticidin, 600 μg/mL Hygromycin) and incubated for 18 h at 37° C. in 5% CO2. Growth medium was replaced with 12 μL assay buffer (Hanks Balanced Salt solution, 10 mM Hepes, 0.1% BSA, pH7.4). A 5× compound dose response curve (12-point) was generated in assay buffer containing 1.5 mM IBMX, 12.5% DMSO. GLP-1(9-36) was diluted to 4.2 μM in assay buffer containing 1.5 mM IBMX and 12.5% DMSO. The 5× compound dose response was added (3 μL), followed by 0.5 μL of GLP-1(9-36) and cells were incubated for 30 min at 37° C. Direct detection of cAMP was carried out using DiscoveRx HitHunter cAMP kit according to manufacturer's instructions and luminescence was read using a SpectraMax M5 plate reader. Luminescence was converted to total cAMP using a cAMP standard curve and data was analyzed by non-linear regression to determine the EC50 and Emax.
Background: Cyclic AMP is a second messenger, typically raised through Gs and lowered through Gi signalling.

A short description of data set [2]: Determination of absolute oral bioavailability in rats. The note with it: rat, plasma, fasted female Sprague-Dawley rats, intravenous 1 mg/kg. The format is in vivo. The method, then:
Determination of Absolute Oral Bioavailability in Rats
All pharmacokinetic studies were conducted in fasted female Sprague-Dawely rats (Simonsen Laboratories or Harlan Laboratories). Rats were housed in an ALAAC accredited facility and the research was approved by the facilities Institutional Animal Care and Use Committee (IACUC). The animals were acclimated to the laboratory for at least 48 h prior to initiation of experiments.
Compounds were formulated in 20% hydroxy beta cyclodextrin or 20% captisol and 80%-25 mM NaPO4 Buffer (pH 8) (intravenous infusion), or 5% DMSO/5% Tween20 and 90% water (oral gavage or intraperitoneal injection). The concentration of the dosing solutions was verified by HPLC-UV. For intravenous dosing, compounds were administered into the tail vein to manually restrained animals (n=3 rats/compound). The intravenous dose was 1 mg/kg. Oral dosing was by gavage using a standard stainless steel gavage needle (n=2-4 rats/compound). The oral solution dose was 5 mg/kg. For compounds 1 and 3, the oral solution dose was 30 mg/kg. For both routes of administration, blood was collected into BD Microtainer tubes with Dipotassium EDTA as the anticoagulantant eight time-points after dosing with the final sample drawn 24 h post dose Plasma was separated by centrifugation and transferred to a polypropylene 96-well plate and kept at 4° C. until analysis.
Proteins were precipitated by adding 150 μL acetonitrile to 50 μL of plasma. Plates were mixed for 1 min on a plate shaker to facilitate protein precipitation and then centrifuged at 3,000 rpm for 10 min to pellet protein. The supernatant was transferred to a clean plate and centrifuged at 3,000 rpm for 10 min to pellet any remaining solid material prior to LC/MS/MS analysis. Calibration curve standards were prepared by spiking 54 compound stock in DMSO into rat plasma from untreated animals. An eight point standard curve spanning a range of 0.14 nM to 300 nM was included with each bio-analytical run. The standards were processed identically to the rat pharmacokinetic samples.
Concentrations in the rat pharmacokinetic samples were determined using a standardized HPLC-LC/MS/MS method relative to the eight point standard curve. The system consisted of a Leap CTC Pal injector, Agilent 1200 HPLC with binary pump coupled with an Applied Biosystems 4000 QTrap. Compounds were chromatographed on a Phenomenex Luna C8(2) 20×2 mm 2 um Mercury Cartridge with Security Guard. A gradient method was used with mobile phase A consisting of 0.1% formic acid in water and mobile phase B consisting of 0.1% formic acid in acetonitrile at flow rates varying from 0.7 to 0.8 mL/min. Ions were generated in positive ionization mode using an electrospray ionization (ESI) interface. Multiple reaction monitoring (MRM) methods were developed specific to each compound. The heated nebulizer was set at 500° C. with a nebulizer current of 5.1 μA. Collision energies used to generate daughter ions ranged between 29 and 80 V. Peak area obtained from MRM of the mass transitions specific for each compound were used for quantification. The limit of quantification of the method was typically 1.2 nM. Data were collected and analyzed using Analyst software version 1.5.1. Blood concentration versus time data were analyzed using non-compartmental methods (WinNonlin Phoenix version 6.2; model 200 for oral or intraperitoneal dosing and model 202 for intravenous infusion). Absolute oral bioavailability (%) was calculated using the following expression: (Oral AUC×IV Dose)/(IV AUC×Oral Dose)×100.

[3] abbreviates: oral solution 30 mg/kg (compounds 1 and 3).

Each structure is given as a SMILES string.

T1 sequence (P43220 24-463): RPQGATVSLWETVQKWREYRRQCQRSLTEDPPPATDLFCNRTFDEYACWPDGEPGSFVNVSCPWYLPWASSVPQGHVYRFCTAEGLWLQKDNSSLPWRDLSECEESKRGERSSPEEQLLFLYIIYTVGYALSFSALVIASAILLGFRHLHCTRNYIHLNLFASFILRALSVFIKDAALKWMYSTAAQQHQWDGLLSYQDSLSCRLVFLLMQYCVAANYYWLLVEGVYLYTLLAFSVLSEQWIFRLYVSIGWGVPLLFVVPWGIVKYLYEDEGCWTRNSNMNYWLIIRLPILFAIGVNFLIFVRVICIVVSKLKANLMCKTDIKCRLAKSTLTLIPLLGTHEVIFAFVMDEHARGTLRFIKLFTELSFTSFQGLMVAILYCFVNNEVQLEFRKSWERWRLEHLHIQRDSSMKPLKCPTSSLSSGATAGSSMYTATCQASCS
T1 sequence (P01275 100-127 partner limits assumed): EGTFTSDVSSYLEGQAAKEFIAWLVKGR

As for `CCCCCCCOc1ccc(C(=O)Oc2ccc(CN(CC(=O)O)C(=O)c3ccc(NC(=O)Cc4ccc(OC)cc4)cc3)cc2)cc1` [Compound 1, 2-(N-(4-((4-(heptyloxy)benzoyl)oxy)benzyl)-4-(2-(4-methoxyphenyl)acetamido)benzamido)-acetic acid], in data set [1], the “EC20 GLP-1 (9-36) PAM Activity max cAMP” value is 240 nM and the EC50 was found to be 3600 nM. In data set [2] (setting [3]), this compound came in with a bioavailability of under 1%.

For the compound `CCCCCCCOc1ccc(C(=O)Oc2ccc(CN(CC(=O)O)C(=O)c3ccc(NC(=O)Cc4ccc(OC)cc4C(F)(F)F)cc3)cc2)cc1` [Compound 3, 2-(N-(4-((4-(heptyloxy)benzoyl)oxy)benzyl)-4-(2-(4-methoxy-2-(trifluoromethyl)phenyl)-acetamido)benzamido)acetic acid], in data set [1], the “EC20 GLP-1 (9-36) PAM Activity max cAMP” value is listed as 284 nM and the EC50 was found to be 1300 nM. In addition, in data set [2] (setting [3]), the bioavailability was under 1%.

Consider `CCCCCCCOc1ccc(C(=O)Oc2ccc(CN(CC(=O)O)C(=O)c3ccc(NC(=O)Cc4ccc(C)c(OC)c4)cc3)cc2)cc1` [Compound 4, 2-(N-(4-((4-(heptyloxy)benzoyl)oxy)benzyl)-4-(2-(3-methoxy-4-methylphenyl)-acetamido)benzamido)acetic acid], for which, in data set [1], the “EC20 GLP-1 (9-36) PAM Activity max cAMP” value stood at 371 nM and the EC50 was 2400 nM.

For `CCCCCCCCCOc1ccc(C(=O)Oc2ccc(CN(CC(=O)O)C(=O)c3ccc(NC(=O)Cc4ccc(OC)cc4)cc3)cc2)cc1` [Compound 16, 2-(4-(2-(4-methoxyphenyl)acetamido)-N-(4-((4-(nonyloxy)benzoyl)oxy)benzyl)benzamido) acetic acid], in data set [1], the “EC20 GLP-1 (9-36) PAM Activity max cAMP” value stood at 293 nM and the EC50 worked out at 1200 nM.

With `CCCCCCCCOc1ccc(C(=O)Oc2ccc(CN(CC(=O)O)C(=O)c3ccc(NC(=O)Cc4ccc(OC)cc4)cc3)cc2)cc1` [Compound 17, 2-(4-(2-(4-methoxyphenyl)acetamido)-N-(4-((4-(octyloxy)benzoyl)oxy)benzyl)benzamido) acetic acid], in data set [1], the “EC20 GLP-1 (9-36) PAM Activity max cAMP” value was 281 nM and the EC50 was 1500 nM.

Take `CCCCCCOc1ccc(C(=O)Oc2ccc(CN(CC(=O)O)C(=O)c3ccc(NC(=O)Cc4ccc(OC)cc4)cc3)cc2)cc1` [Compound 18, 2-(N-(4-((4-(hexyloxy)benzoyl)oxy)benzyl)-4-(2-(4-methoxyphenyl)acetamido)benzamido) acetic acid]: in data set [1], the “EC20 GLP-1 (9-36) PAM Activity max cAMP” value turned out to be 182 nM and the EC50 was found to be 3100 nM.

Take `COc1ccc(CC(=O)Nc2ccc(C(=O)N(CC(=O)O)Cc3ccc(OC(=O)c4ccc(C5CCCCC5)cc4)cc3)cc2)cc1` [Compound 39, 2-(N-(4-((4-cyclohexylbenzoyl)oxy)benzyl)-4-(2-(4-methoxyphenyl)acetamido)benzamido) acetic acid]: in data set [1], the “EC20 GLP-1 (9-36) PAM Activity max cAMP” value is reported as 273 nM and the EC50 was 2500 nM.

As to `CCCCCCCCc1ccc(C(=O)Oc2ccc(CN(CC(=O)O)C(=O)c3ccc(NC(=O)Cc4ccc(OC)cc4)cc3)cc2)cc1` [Compound 40, 2-(4-(2-(4-methoxyphenyl)acetamido)-N-(4-((4-octylbenzoyl)oxy)benzyl)benzamido)acetic acid], in data set [1], the “EC20 GLP-1 (9-36) PAM Activity max cAMP” value is 397 nM and the EC50 worked out at 2100 nM.

Turning to `COc1ccc(CC(=O)Nc2ccc(C(=O)N(CC(=O)O)Cc3ccc(OC(=O)c4ccc(OCCC(C)C)cc4)cc3)cc2)cc1` [Compound 46, 2-(N-(4-((4-(isopentyloxy)benzoyl)oxy)benzyl)-4-(2-(4-methoxyphenyl)acetamido)benzamido) acetic acid], in data set [1], the “EC20 GLP-1 (9-36) PAM Activity max cAMP” value is 252 nM and the concentration giving a half-maximal response (EC50) was 7000 nM.

For `COc1ccc(CC(=O)Nc2ccc(C(=O)N(CC(=O)O)Cc3ccc(OC(=O)c4ccc(-c5ccc(C)cc5)cc4)cc3)cc2)c(C(F)(F)F)c1` [Compound 192, 2-(4-(2-(4-methoxy-2-(trifluoromethyl)phenyl)acetamido)-N-(4-((4′-methyl-[1,1′-biphenyl]-4-carbonyl)oxy)benzyl)benzamido)acetic acid], in data set [1], the “EC20 GLP-1 (9-36) PAM Activity max cAMP” value stood at 248 nM and the EC50 was 1300 nM.

As to `COc1ccc(CC(=O)Nc2ccc(C(=O)N(CC(=O)O)Cc3ccc(OC(=O)c4ccc(-c5ccc(C)cc5)cc4)cc3)c(OC)c2)c(C(F)(F)F)c1` [Compound 314, 2-(2-methoxy-4-(2-(4-methoxy-2-(trifluoromethyl)phenyl)acetamido)-N-(4-((4′-methyl-[1,1′-biphenyl]-4-carbonyl)oxy)benzyl)benzamido)acetic acid], in data set [1], the “EC20 GLP-1 (9-36) PAM Activity max cAMP” value is recorded as 307 nM and the EC50 worked out at 500 nM.

For the compound `COc1ccc(CC(=O)Nc2ccc(C(=O)N(CC(=O)O)Cc3ccc(-c4noc(-c5ccc(-c6ccc(C)cc6)cc5)n4)cc3)cc2)c(C(F)(F)F)c1` [Compound 354, 2-(4-(2-(4-methoxy-2-(trifluoromethyl)phenyl)acetamido)-N-(4-(5-(4′-methyl-[1,1′-biphenyl]-4-yl)-1,2,4-oxadiazol-3-yl)benzyl)benzamido)acetic acid], in data set [1], the “EC20 GLP-1 (9-36) PAM Activity max cAMP” value worked out at 297 nM and the EC50 came to 300 nM. This compound also returned a bioavailability in data set [2] (oral solution 5 mg/kg) of 2%.

On to `COc1ccc(CC(=O)Nc2ccc(C(=O)N(CC(=O)O)Cc3ccc(-c4noc(-c5ccc(C)cc5)n4)cc3)cc2)c(C(F)(F)F)c1` [Compound 355, 2-(4-(2-(4-methoxy-2-(trifluoromethyl)phenyl)acetamido)-N-(4-(5-(p-tolyl)-1,2,4-oxadiazol-3-yl)benzyl)benzamido)acetic acid], for which, in data set [1], the “EC20 GLP-1 (9-36) PAM Activity max cAMP” value came out at 266 nM and the EC50 was 2900 nM. In data set [2] (oral solution 5 mg/kg), this compound gave a bioavailability of 2%.

In the case of `COc1ccc(CC(=O)Nc2ccc(C(=O)N(CC(=O)O)Cc3ccc(-c4nc(-c5ccc(-c6ccc(C)cc6)cc5)co4)cc3)cc2)c(C(F)(F)F)c1` [Compound 360, 2-(4-(2-(4-methoxy-2-(trifluoromethyl)phenyl)acetamido)-N-(4-(4-(4′-methyl-[1,1′-biphenyl]-4-yl)oxazol-2-yl)benzyl)benzamido)acetic acid], in data set [1], the “EC20 GLP-1 (9-36) PAM Activity max cAMP” value was 290 nM and the EC50 was determined as 500 nM. In data set [2] (oral solution 5 mg/kg), the bioavailability came out at 2%.

Regarding `COc1ccc(CC(=O)Nc2ccc(C(=O)N(CC(=O)O)Cc3ccc(-c4n[nH]c(-c5ccc(-c6ccc(C)cc6)cc5)n4)cc3)cc2)c(C(F)(F)F)c1` [Compound 361, 2-(4-(2-(4-methoxy-2-(trifluoromethyl)phenyl)acetamido)-N-(4-(5-(4′-methyl-[1,1′-biphenyl]-4-yl)-1H-1,2,4-triazol-3-yl)benzyl)benzamido)acetic acid], in data set [1], the “EC20 GLP-1 (9-36) PAM Activity max cAMP” value came to 234 nM and the EC50 is 2700 nM.

For orientation: EC50 means the concentration that produces a half-maximal response. As usually defined, the bioavailability is the share of a dose that reaches the circulation, judged against a reference dose that is usually intravenous. Higher therefore signals good availability.
